Data from patent publication US12612412B2, “Antiviral heterocyclic compounds” (Enanta Pharmaceuticals, Inc., priority 2021, dated 2026).

What follows are compounds tested on genotype A, "Long" strain RSV (assay: RSV-A assay (CPE protection in Hep-2 cells, ATPlite readout)). Settings: human respiratory syncytial virus, RSV-A Long strain, MOI 0.1, CPE protection, read-out: Human RSV-A (“Long”) EC50.
Type: cell-based, Human respiratory syncytial virus (HRSV)
Procedure, shortened: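 Compound effect on RSV-induced CPE: Hep-2 monolayers, MOI 0.1, duplicate 2-fold titrations, 5-day culture in 10% FBS DMEM. Readout is ATP-based luminescence, normalised to virus-only and no-virus controls, giving EC50.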

Structure (SMILES)	EC50
COc1cc(C(=O)NC[C@](O)(c2cc3c(c(-c4ccc(F)c(Cl)c4)n2)OC[C@]3(C)C(N)=O)C(F)(F)F)cn2nc(C3CC3)cc12 [Example 880]	> 200 nM
COc1cc(C(=O)NC[C@](O)(c2cc3c(c(-c4c(F)ccc(Cl)c4Cl)n2)OC[C@]3(C)C(N)=O)C2CC2)cc2cn(C3CC3)nc12 [Example 1289]	< 200 nM
COc1cc(C(=O)NC[C@](O)(c2cc3c(c(-c4cn(C)nc4C(F)(F)F)n2)OC[C@]3(C)C(N)=O)C(F)(F)F)cc2cn(C3CC3)nc12 [Example 904]	> 200 nM
COc1cc(C(=O)NC[C@](O)(c2cc3c(c(-c4ccc5c(c4)OC(F)(F)C5(F)F)n2)OC[C@]3(C)C(N)=O)C2CC2)cc2cn(C3CC3)nc12 [Example 1238]	< 200 nM
COc1cc(C(=O)NC[C@](O)(c2cc3c(c(-c4ccc5c(c4)OC(F)(F)O5)n2)OC[C@]3(C)C(N)=O)C2CC2)cc2sc(C3CC3)nc12 [Example 1293]	< 200 nM
CNC(=O)[C@@]1(C)COc2c1cc([C@@](O)(CNC(=O)c1cc(OC)c3nn(C4CC4)cc3c1)C(F)(F)F)nc2-c1cc(Cl)c(F)cc1F [Example 1203]	< 200 nM
COc1cc(C(=O)NC[C@](O)(c2cc3c(c(-c4cc(Cl)c(F)cc4F)n2)OC[C@]3(C)C(N)=O)C2CC2)cc2sc(C)nc12 [Example 1131]	< 200 nM
COc1cc(C(=O)NC[C@](O)(c2cc3c(c(-c4cc(Cl)c(F)cc4F)n2)OC[C@]3(C)C(N)=O)C2(F)CC2)cc2cc(Br)cnc12 [Example 1113]	< 200 nM
COc1cc(C(=O)NC[C@](O)(c2cc3c(c(-c4ccc(F)c(Cl)c4)n2)OC[C@]3(C)C(N)=O)C(F)(F)F)cc2cc(C)c(Cl)nc12 [Example 1071]	< 200 nM
COc1cc(C(=O)NC[C@](O)(c2cc3c(c(-c4cccc(F)c4Cl)n2)OC[C@]3(C)C(N)=O)C(F)(F)F)cc2cn(C3CC3)nc12 [Example 1107]	< 200 nM
COc1cc(C(=O)NC[C@](O)(c2cc3c(c(-c4ccc5oc(C)nc5c4)n2)OC[C@]3(C)C(N)=O)C(F)(F)F)cc2cn(C3CC3)nc12 [Example 902]	> 200 nM
COc1cc(C(=O)NC[C@](O)(c2cc3c(c(-c4cc(Cl)c(F)cc4F)n2)OC[C@]3(C)C(=O)NC2(C)CC2)C(F)(F)F)cc2cn(C3CC3)nc12 [Example 1205]	< 200 nM
COc1cc(C(=O)NC[C@](O)(c2cc3c(c(-c4cc(F)c(F)c(F)c4)n2)OC[C@]3(C)C(N)=O)C2CC2)cc2cn(C3CC3)nc12 [Example 1273]	< 200 nM
[2H]c1nc2c(OC)cc(C(=O)NC[C@](O)(c3cc4c(c(-c5cc(Cl)c(F)cc5F)n3)OC[C@]4(C)C(N)=O)C3CC3)cc2cc1Br [Example 1216]	< 200 nM
COc1cc(C(=O)NC[C@](O)(c2cc3c(c(-c4cc(Cl)c(F)cc4Cl)n2)OC[C@]3(C)C(N)=O)C2CC2)cc2cn(C3CC3)nc12 [Example 1275]	< 200 nM
COc1cc(C(=O)NC[C@](O)(c2cc3c(c(-c4cc(Cl)cc(Cl)c4F)n2)OC[C@]3(C)C(N)=O)C(F)(F)F)cc2cn(C3CC3)nc12 [Example 1258]	< 200 nM
Cc1cnc2c(OC(F)F)cc(C(=O)NC[C@](O)(c3cc4c(c(-c5cccc(F)c5Cl)n3)OC[C@]4(C)C(N)=O)C3CC3)cc2c1 [Example 1211]	< 200 nM
COc1cc(C(=O)NC[C@](O)(c2cc3c(c(-c4cc(F)cc(Cl)c4F)n2)OC[C@]3(C)C(N)=O)C(F)(F)F)cc2cn(C3CC3)nc12 [Example 1242]	< 200 nM
[2H]C([2H])([2H])c1nc2c(OC)cc(C(=O)NC[C@](O)(c3cc4c(c(-c5cc(Br)c(F)cc5F)n3)OC[C@]4(C)C(N)=O)C3CC3)cc2cc1Cl [Example 1272]	< 200 nM
COc1cc(C(=O)NC[C@](O)(c2cc3c(c(-c4ccc(F)c(F)c4Cl)n2)OC[C@]3(C)C(=O)NC2(C)CC2)C(F)(F)F)cc2cn(C3CC3)nc12 [Example 1204]	< 200 nM
COc1cc(C(=O)NC[C@](O)(c2cc3c(c(-c4cc(Cl)cc(Cl)c4)n2)OC[C@]3(C)C(N)=O)C2CC2)cc2cn(C3CC3)nc12 [Example 1281]	< 200 nM

Same assay, conditions: human respiratory syncytial virus, genotype A “Long” strain RSV, MOI 0.1, CPE protection, read-out: Human RSV-A (“Long”)

Structure (SMILES)	EC50
C[C@]1(C(N)=O)COc2c1cc([C@@](O)(CNC(=O)c1ccn3nccc3n1)C(F)(F)F)nc2-c1ccc(F)cc1 [Example 433]	> 200 nM
Cc1cccn2cc(C(=O)NC[C@](O)(c3cc4c(c(-c5ccc(F)cc5)n3)OC[C@]4(C)C(N)=O)C(F)(F)F)nc12 [Example 806]	> 200 nM
C[C@]1(C(N)=O)COc2c1cc([C@@](O)(CNC(=O)c1ccc[nH]1)C(F)(F)F)nc2-c1ccc(F)cc1 [Example 391]	> 200 nM
C[C@]1(C(N)=O)COc2c1cc([C@@](O)(CNC(=O)c1ccc3[nH]c(C4CC4)cc3c1)C(F)(F)F)nc2-c1ccc(F)cc1 [Example 205]	> 200 nM
C[C@]1(C(N)=O)COc2c1cc([C@@](O)(CNC(=O)c1nccs1)C(F)(F)F)nc2-c1ccc(F)cc1 [Example 396]	> 200 nM
Cc1cc2ccc(C(=O)NC[C@](O)(c3cc4c(c(-c5ccc(F)cc5)n3)OC[C@]4(C)C(N)=O)C(F)(F)F)cn2c1 [Example 189]	> 200 nM
C[C@]1(C(N)=O)COc2c1cc([C@@](O)(CNC(=O)c1cnc3nc(C4CC4)sc3c1)C(F)(F)F)nc2-c1ccc(F)cc1 [Example 21]	< 200 nM
COc1cc(C(=O)NC[C@](O)(c2cc3c(c(-c4ccc(F)cc4)n2)OC[C@]3(CF)C(N)=O)C(F)(F)F)cc2cc(C(F)(F)F)cnc12 [Example 287]	< 200 nM
COc1cc(C(=O)NC[C@](O)(c2cc3c(c(-c4ccc(F)c(Cl)c4)n2)OC[C@]3(C)C(N)=O)C(F)(F)F)cc2cn(C(F)F)nc12 [Example 46]	< 200 nM
Cc1cnc2c(Nc3ccc(C(F)(F)F)nn3)cc(C(=O)NC[C@](O)(c3cc4c(c(-c5ccc(F)cc5)n3)OC[C@]4(C)C(N)=O)C(F)(F)F)cc2c1 [Example 116]	< 200 nM
COc1cc(C(=O)NC[C@](O)(c2cc3c(c(-c4ccc(F)cc4)n2)OCC3(CF)C(N)=O)C(F)(F)F)cc2cn(C(F)F)nc12 (stereo partly shown) [Example 288]	< 200 nM
C[C@]1(C(N)=O)COc2c1cc([C@@](O)(CNC(=O)c1cnoc1C1CC1)C(F)(F)F)nc2-c1ccc(F)cc1 [Example 342]	> 200 nM
COc1cc(C(=O)NC[C@](O)(c2cc3c(c(-c4ccc(F)cc4)n2)OC[C@]3(C)C(N)=O)C(F)(F)F)ccc1OC[C@@H](C)N [Example 150]	> 200 nM
Cc1cc[nH]c1C(=O)NC[C@](O)(c1cc2c(c(-c3ccc(F)cc3)n1)OC[C@]2(C)C(N)=O)C(F)(F)F [Example 362]	> 200 nM
C[C@]1(C(N)=O)COc2c1cc([C@@](O)(CNC(=O)c1ccc(F)c3cc[nH]c13)C(F)(F)F)nc2-c1ccc(F)cc1 [Example 348]	< 200 nM
CCc1ccc(Nc2cc(C(=O)NC[C@](O)(c3cc4c(c(-c5ccc(F)cc5)n3)OC[C@]4(C)C(N)=O)C(F)(F)F)cc3cc(C)cnc23)nn1 [Example 117]	< 200 nM
C[C@]1(C(N)=O)COc2c1cc([C@@](O)(CNC(=O)c1cccc3[nH]ccc13)C(F)(F)F)nc2-c1ccc(F)cc1 [Example 415]	> 200 nM

Structure (SMILES)	EC50
C[C@]1(C(N)=O)COc2c1cc([C@@](O)(CNC(=O)c1c[nH]c3nccnc13)C(F)(F)F)nc2-c1ccc(F)cc1 [Example 351]	> 200 nM
C[C@]1(C(N)=O)COc2c1cc([C@@](O)(CNC(=O)c1cnn(C3CC3)c1)C(F)(F)F)nc2-c1ccc(F)cc1 [Example 461]	< 200 nM
COc1cc(C(=O)NC[C@@](O)(c2cc3c(c(-c4ccc(F)c(C)c4)n2)OC[C@]3(C)C(N)=O)C(F)(F)F)cc2cn(C3CC3)nc12 [Example 635]	> 200 nM
COc1cc(C(=O)NC[C@](O)(c2cc3c(c(-c4ccc(F)cc4)n2)OC[C@]3(C)C(N)=O)C2CC2)cc2cn(C(F)F)nc12 [Example 303]	< 200 nM
COc1cc(C(=O)NC[C@](O)(c2cc3c(c(-c4ccc(F)cc4)n2)OC[C@]3(C)C(N)=O)C(F)(F)F)cc2nc(N)oc12 [Example 89]	< 200 nM
C[C@]1(C(N)=O)COc2c1cc([C@@](O)(CNC(=O)c1ccc3ccnn3c1)C(F)(F)F)nc2-c1ccc(F)cc1 [Example 418]	< 200 nM
COc1cc2cc(C(=O)NC[C@](O)(c3cc4c(c(-c5ccc(F)cc5)n3)OC[C@]4(C)C(N)=O)C(F)(F)F)ccc2nc1C [Example 326]	< 200 nM
CC(C)c1cc(C(=O)NC[C@](O)(c2cc3c(c(-c4ccc(F)cc4)n2)OC[C@]3(C)C(N)=O)C(F)(F)F)cc2cn[nH]c12 [Example 123]	< 200 nM
COc1cc(C(=O)NC[C@](O)(c2cc3c(c(-c4ccc(F)cc4)n2)OC[C@@]3(C(N)=O)C2CC2)C(F)(F)F)ccc1OC1CC1 [Example 276]	< 200 nM
C[C@]1(C(N)=O)COc2c1cc([C@@](O)(CNC(=O)c1cc3ccccn3n1)C(F)(F)F)nc2-c1ccc(F)cc1 [Example 392]	> 200 nM
COc1cc(C(=O)NC[C@](O)(c2cc3c(c(-c4ccc(F)cc4)n2)OC[C@]3(C)C(N)=O)C(F)(F)F)cc2c1NC(=O)C2 [Example 225]	< 200 nM
C[C@]1(C(N)=O)COc2c1cc([C@@](O)(CNC(=O)c1cc3ccc(C(F)(F)F)cc3[nH]1)C(F)(F)F)nc2-c1ccc(F)cc1 [Example 338]	> 200 nM
COc1cc(C(=O)NC[C@](O)(c2cc3c(c(-c4ccc(F)cc4)n2)OC[C@@]3(C(N)=O)C2CC2)C(F)(F)F)cc2cc(Cl)c(C)nc12 [Example 274]	< 200 nM
C[C@]1(C(N)=O)COc2c1cc([C@@](O)(CNC(=O)c1cn3cc(C(F)(F)F)ccc3n1)C(F)(F)F)nc2-c1ccc(F)cc1 [Example 810]	> 200 nM
C[C@]1(C(N)=O)COc2c1cc([C@@](O)(CNC(=O)c1cc[nH]c1)C(F)(F)F)nc2-c1ccc(F)cc1 [Example 349]	> 200 nM
C[C@]1(C(N)=O)COc2c1cc([C@@](O)(CNC(=O)c1cnc3cc[nH]c3c1)C(F)(F)F)nc2-c1ccc(F)cc1 [Example 343]	> 200 nM
C[C@]1(C(N)=O)COc2c1cc([C@@](O)(CNC(=O)c1cnn(-c3ccccc3)c1C(F)(F)F)C(F)(F)F)nc2-c1ccc(F)cc1 [Example 456]	> 200 nM
